The supplement of paper PMC13380429

Columns and labels:
Conditions in all cases: 72 h
U2OS [1] = test: cell viability relative to DMSO; higher = less toxic
Caco-2 [2] = test: as above
Calu-3 [3] = test: as above
Vero E6 [4] = test: as above
HepG2 [5] = test: as above
U2OS [6] = test: drug sensitivity score (DSS) for viability; higher = more toxic; extreme values may be limits of the assay
Caco-2 [7] = test: as above
Calu-3 [8] = test: as above
Vero E6 [9] = test: as above
HepG2 [10] = test: as above
U2OS [11] = test: relative viability EC50 (midpoint between 100% and the lowest measured viability); higher = less toxic
Caco-2 [12] = test: as above
Calu-3 [13] = test: as above
Vero E6 [14] = test: as above
HepG2 [15] = test: as above

Compound | cell viability (U2OS [1]; 1 nM) [%] | cell viability (U2OS [1]; 10 nM) [%] | cell viability (U2OS [1]; 100 nM) [%] | cell viability (U2OS [1]; 1000 nM) [%] | cell viability (U2OS [1]; 10000 nM) [%] | cell viability (Caco-2 [2]; 1 nM) [%] | cell viability (Caco-2 [2]; 10 nM) [%] | cell viability (Caco-2 [2]; 100 nM) [%] | cell viability (Caco-2 [2]; 1000 nM) [%] | cell viability (Caco-2 [2]; 10000 nM) [%] | cell viability (Calu-3 [3]; 1 nM) [%] | cell viability (Calu-3 [3]; 10 nM) [%] | cell viability (Calu-3 [3]; 100 nM) [%] | cell viability (Calu-3 [3]; 1000 nM) [%] | cell viability (Calu-3 [3]; 10000 nM) [%] | cell viability (Vero E6 [4]; 1 nM) [%] | cell viability (Vero E6 [4]; 10 nM) [%] | cell viability (Vero E6 [4]; 100 nM) [%] | cell viability (Vero E6 [4]; 1000 nM) [%] | cell viability (Vero E6 [4]; 10000 nM) [%] | cell viability (HepG2 [5]; 1 nM) [%] | cell viability (HepG2 [5]; 10 nM) [%] | cell viability (HepG2 [5]; 100 nM) [%] | cell viability (HepG2 [5]; 1000 nM) [%] | cell viability (HepG2 [5]; 10000 nM) [%] | drug sensitivity score (U2OS [6]) | drug sensitivity score (Caco-2 [7]) | drug sensitivity score (Calu-3 [8]) | drug sensitivity score (Vero E6 [9]) | drug sensitivity score (HepG2 [10]) | relative viability EC50 (U2OS [11]) [µM] | relative viability EC50 (Caco-2 [12]) [µM] | relative viability EC50 (Calu-3 [13]) [µM] | relative viability EC50 (Vero E6 [14]) [µM] | relative viability EC50 (HepG2 [15]) [µM]
CCCCC(=O)OCC(=O)[C@]1(O)Cc2c(O)c3c(c(O)c2[C@@H](O[C@H]2C[C@H](NC(=O)C(F)(F)F)[C@H](O)[C@H](C)O2)C1)C(=O)c1c(OC)cccc1C3=O [valrubicin] | 105 | 96.7 | 103 | 70.3 | 6.1 | 95.9 | 96.8 | 92.5 | 72.3 | 23.3 | 90.7 | 95.4 | 89.7 | 60.9 | 26.7 | 98.6 | 102 | 107 | 92.3 | 29.2 | 95.7 | 101 | 77.9 | 33.6 | 0.6 | 9.5 | 7.5 | 9 | 5.2 | 15.2 | 1.36 | 1.36 | 0.769 | 2.28 | 0.43
CCCCC(=O)N(Cc1ccc(-c2ccccc2-c2nnn[nH]2)cc1)[C@H](C(=O)O)C(C)C [valsartan] | 101 | 98.8 | 96.9 | 97.2 | 101 | 92 | 94.3 | 88.6 | 102 | 96 | 103 | 108 | 95.6 | 102 | 90.9 | 101 | 99.8 | 98.1 | 100 | 99.9 | 107 | 101 | 93.4 | 97.3 | 103 | 0 | 0 | 0 | 0 | 0 | > 10 | > 10 | > 10 | > 10 | > 10
COc1ccc(N(C)c2nc(C)nc3ccccc23)cc1 [verubulin] | 102 | 72.6 | 17.3 | 18 | 18.3 | 103 | 76.2 | 40.5 | 38.3 | 34.6 | 94.9 | 77.2 | 46.6 | 42.3 | 40.3 | 93 | 32.6 | 21.4 | 23.9 | 27.9 | 108 | 52.4 | 34.3 | 36.3 | 41.4 | 29.6 | 22.4 | 20.2 | 33.5 | 26.2 | 0.0133 | 0.0156 | 0.0151 | 0.0037 | 0.0069
OCC(CO)N[C@H]1C[C@](O)(CO)[C@@H](O)[C@H](O)[C@H]1O [voglibose] | 103 | 100 | 100 | 98.2 | 97.5 | 94.4 | 102 | 93.7 | 98 | 106 | 97.8 | 106 | 98.4 | 101 | 108 | 97 | 95.1 | 94.3 | 93.8 | 104 | 98.2 | 108 | 102 | 100 | 111 | 0 | 0 | 0 | 0 | 0 | > 10 | > 10 | > 10 | > 10 | > 10
COc1cccc([C@H](O)C2CCN(CCc3ccc(F)cc3)CC2)c1OC [volinanserin] | 103 | 96.2 | 99.7 | 98.6 | 98.5 | 101 | 97.3 | 101 | 90.8 | 88.9 | 90.9 | 104 | 99.9 | 101 | 95.1 | 102 | 99.9 | 98.9 | 101 | 96.1 | 99.9 | 99.9 | 95.8 | 101 | 91.3 | 0 | 0.2 | 0 | 0 | 0 | > 10 | > 10 | > 10 | > 10 | > 10
CC(=O)CC(c1ccccc1)c1c(O)c2ccccc2oc1=O (stereo not given) [warfarin] | 96 | 97.2 | 98.3 | 102 | 94.9 | 98 | 108 | 101 | 95.1 | 99.7 | 100 | 91.9 | 104 | 97.8 | 115 | 101 | 96.9 | 105 | 103 | 97.1 | 100 | 85.7 | 94.8 | 98.5 | 107 | 0 | 0 | 0 | 0 | 0 | > 10 | > 10 | > 10 | > 10 | > 10
Cc1cc(-c2ccc(CC(=O)Nc3ccc(-c4cccnc4)cc3)cc2)ccn1 [wnt-c59] | 93.9 | 93.6 | 94.8 | 92.9 | 91.3 | 104 | 94.8 | 109 | 96.1 | 85 | 106 | 106 | 101 | 98 | 83.6 | 97.1 | 101 | 100 | 99.5 | 102 | 96.3 | 110 | 94.5 | 103 | 81.8 | 0 | 0.6 | 0.5 | 0 | 0.3 | > 10 | > 10 | > 10 | > 10 | > 10
